Measurements reported in patent publication US6727076B2 (priority 1995, dated 2004).

Legend:
[1] = tested on: E. coli strain 13673 (O157); format: cell-based
[2] = tested on: E. coli strain 6322 (EMG2 (K12, λF+)); format: cell-based; further: key: '+' indicates that the organism tested was capable of utilizing the carbon source listed; '−' indicates that the organism tested was not capable of utilizing the carbon source listed; 'w' indicates weak positive reactions
[3] = tested on: E. coli strain 6321 (MG1655); format: cell-based; further: key: '+' indicates that the organism tested was capable of utilizing the carbon source listed; '−' indicates that the organism tested was not capable of utilizing the carbon source listed; 'w' indicates weak positive reactions
[4] = tested on: E. coli strain 14445 (MG1655 himA); format: cell-based
[5] = tested on: E. coli strain 13675 (O157); format: cell-based
[6] = tested on: E. coli strain 14443 (MG1655 (FB426)); format: cell-based; further: key: '+' indicates that the organism tested was capable of utilizing the carbon source listed; '−' indicates that the organism tested was not capable of utilizing the carbon source listed; 'w' indicates weak positive reactions
[7] = tested on: E. coli strain 6320 (W3110); format: cell-based; further: key: '+' indicates that the organism tested was capable of utilizing the carbon source listed; '−' indicates that the organism tested was not capable of utilizing the carbon source listed; 'w' indicates weak positive reactions
[8] = tested on: E. coli 287 (ATCC #11775); format: cell-based
[9] = tested on: E. coli strain 11547 (O157:H7); format: cell-based
[10] = tested on: E. coli strain 13671 (O157:H? gur+); format: cell-based
[11] = tested on: E. coli strain 14444 (MG1655 xylA); format: cell-based
T. harzianum DAOM 190830 = format: cell-based, Trichoderma harzianum
E. coli MG1655 [12] = format: cell-based
E. coli = format: cell-based
E. coli MG1655 [13] = format: cell-based; remark: listed apart in the source

Molecule	carbon source utilization [1]	carbon source utilization [2]	carbon source utilization [3]	carbon source utilization [4]	carbon source utilization [5]	carbon source utilization [6]	carbon source utilization [7]	carbon source utilization result [8]	carbon source utilization [9]	carbon source utilization [10]	carbon source utilization [11]	suitability as nitrogen source (growth, purple color) (E. coli MG1655 [12])	use as carbon source (E. coli)	also measured
OC[C@H]1O[C@H](O[C@H]2O[C@H](CO)[C@@H](O)[C@H](O)[C@H]2O)[C@H](O)[C@@H](O)[C@@H]1O [D-trehalose]	+	+	+	+	+	+	+	positive	+	+	+			carbon source utilization result (T. harzianum DAOM 190830): positive
NCCO [2-amino ethanol]	−	−	−	−	−	−	−	positive/negative	−	−	−	not suitable		
NC(=O)CC[C@H](N)C(=O)O [L-glutamine]												positive	can use	
O=C(O)CC(O)C(=O)O (racemic) [D,L-malic acid]	+	+	+	+	+	+	+		+	+	+			
COC1OC(CO)C(O)C(O)C1O (stereo not drawn) [β-methyl glucoside]	+	+	+	+	+	+	+	positive	+	+	+			carbon source utilization result (T. harzianum DAOM 190830): positive
C[C@@H](N)C(=O)O [D-alanine]								positive				positive	can use	
OC[C@H]1O[C@H](OCC2O[C@@H](O)[C@H](O)[C@@H](O)[C@@H]2O)[C@H](O)[C@@H](O)[C@H]1O (stereo partly drawn) [D-melibiose]	+	+	+	+	+	+	+	positive	+	+	+			carbon source utilization result (T. harzianum DAOM 190830): positive
CO[C@H]1O[C@H](CO)[C@H](O)[C@H](O)[C@H]1O [α-methyl galactoside]	+	+	+	+	+	+	+		+	+	+			
Maltotriose	+	+	+	−	+	+	+		+	+	−			carbon source utilization, in words [4]: negative; carbon source utilization, in words [11]: negative
N[C@@H](CCC(=O)O)C(=O)O [L-glutamic acid]												positive	can use	carbon source utilization, in words [4]: negative; carbon source utilization result (T. harzianum DAOM 190830): positive
C[C@H](O)[C@@H](N)C(=O)O [D-threonine]													can use	
C[C@H](O)C(=O)O [L-lactic acid]	+	+	+	+	+	+	+		+	+	+			
O=C1O[C@@H]([C@H](O)CO)[C@H](O)[C@H]1O [D-galactonic acid-γ-lactone]	−	+	+	+	−	+	−	positive	−	−	+			carbon source utilization, in words [1]: negative; carbon source utilization, in words [5]: negative; carbon source utilization, in words [9]: negative; carbon source utilization, in words [10]: negative
OC[C@@H](O)[C@H](O)[C@H](O)[C@@H](O)CO [Dulcitol]	−	−	+	−	+	−	−		+	+	−			
N[C@@H](CC(=O)O)C(=O)O [L-aspartic acid]								positive				positive	can use	
O=C(O)Cc1ccc(O)cc1 [P-hydroxy phenylacetic acid]	−	−	−	−	−	−	−	negative	−	−	−			
NC(=O)C[C@H](N)C(=O)O [L-asparagine]								positive				positive	can use	carbon source utilization result (T. harzianum DAOM 190830): positive
N[C@H](CO)C(=O)O [D-serine]								positive				not suitable	can use	
O=P(O)(O)OCC(O)CO (racemic) [D,L-α-glycerol phosphate]	+	+	+	−	+	−	−	positive	+	+	−			suitability as phosphorus source (growth, purple color) (E. coli MG1655 [13]): positive
N[C@@H](C(=O)O)[C@@H](O)[C@H](O)[C@H](O)CO [D-glucosaminic acid]	−	−	−	−	−	−	−	negative	−	−	−			
O=P(O)(O)O[C@H]1O[C@H](CO)[C@@H](O)[C@H](O)[C@H]1O [Glucose-1-phosphate]	+	+	+	+	+	+	+	positive	+	+	+			suitability as phosphorus source (growth, purple color) (E. coli MG1655 [13]): positive
N[C@H](CC(=O)O)C(=O)O [D-aspartic acid]												not suitable	can use	
C[C@H](N)C(=O)O [L-alanine]								positive				not suitable	can use	carbon source utilization result (T. harzianum DAOM 190830): positive
N[C@@H](CO)C(=O)O [L-serine]								positive				not suitable	can use	carbon source utilization result (T. harzianum DAOM 190830): positive
O=C(O)C[C@H](O)C(=O)O [L-malic acid]	+	+	+	+	+	+	+		+	+	+			
